From patent US4341868A, “Method and test composition for the determination of the substrate for xanthine oxidase” (Kyowa Hakko Kogyo Co., Ltd., priority 1978, dated 1982)
Structures can show the parent of a compound that is named as a salt. Where two headings read alike, the source gives them in different places.

Legend:
[1] = test system: xanthine oxidase derived from milk; conditions: ferricyanide 100; cited from earlier work
xanthine oxidase [2] = experiment: Experiment 3: electron acceptor of the present enzyme; type: biochemical, Enterobacter cloacae
Experimental: 0.15 ml of 10 mM xanthine aqueous solution, 1.0 ml of 100 mM tris-hydrochloride buffer (pH 7.3), 0.65 ml of water and 1 ml of various electron acceptors shown in Table 3 are mixed. The mixture and a solution of xanthine oxidase obtained in Example 1 are incubated at 37° C. and then nitrogen gas is introduced into the mixture and the enzyme solution for 3~4 minutes to remove dissolved oxygen.
Then, 0.2 ml of 0.25 U/ml xanthine oxidase is added to 2.8 ml of the reaction mixture to initiate the reaction and the absorbancy is measured every 15 seconds. The values obtained during one minutes of 30 to 90 seconds after the addition of xanthine oxidase is used as data.
When oxygen is used as an acceptor, nitrogen gas is not introduced into the mixture and the reaction product, uric acid obtained using dissolved oxygen is determined by measuring the absorbancy at 295 nm.

xanthine oxidase [3] = experiment: Substrate specificity (formed hydrogen peroxide, Method II); type: biochemical, Enterobacter cloacae; conditions: for Relative activity: activity on xanthine defined as 100, 0.1 ml of 5 mM substrate, 0.25 U/ml enzyme, pH 7.3, 37° C.; for activity of xanthine oxidase on substrate (in words): conclusion from Table 1
Experimental: After completion of the reaction, the absorbancy of the reaction solution is measured at 500 nm. Molecular extinction coefficient of quinoneimine pigment formed in the reaction is 5.33×10^3 (Clinical Chemistry 20, 470, 1974). When a unit of enzyme activity is defined as the activity of enzyme which forms 1 μmol of hydrogen peroxide in one minute at 37° C. and at a pH of 7.3, the unit (U) of xanthine oxidase is as follows:
The same procedures as in Method II are repeated except that 0.25 U/ml xanthine oxidase and 0.1 ml of 5 mM solutions of various substrates are used, and the amount of the formed hydrogen peroxide is determined.

xanthine oxidase [4] = experiment: Examples 2 and 3: xanthine oxidase activity with nucleic acid compound added to the medium; type: cell-based, Enterobacter cloacae KY 3066
Experimental: In this example, 40 ml of the medium (pH 7.2) containing 0.5 g/dl yeast extract, 0.5 g/dl corn steep liquor, 0.1 g/dl peptone, 0.05 g/dl KH2 PO4, 0.1 g/dl K2 HPO4, […] and is sterilized at 120° C. for 15 minutes. One loopful of the seed culture of Enterobacter cloacae KY 3066 is inoculated into the medium and culturing is carried out at 30° C. for 48 hours.
The microbial cells are recovered from the culture liquor by centrifugation and are suspended in 20 ml of the buffer. The suspension is subjected to ultrasonic disintegration.

xanthine oxidase [5] = experiment: Inhibition of xanthine oxidase (Method I); type: biochemical, Enterobacter cloacae; conditions: for inhibition of xanthine oxidase (in words): conclusion from Table 2
Experimental: The reaction is carried out at 37° C. for ten minutes. […] The thus obtained value is defined as OD283. This value corresponds to the amount of uric acid formed.
Since the reaction product, uric acid has a maximum absorption at 283 nm in acidic region and the molecular extinction coefficient is 1.238×10^4 (Analytical Biochemistry 38, 65, 1970), the unit (U) of xanthine oxidase is as follows:
One unit of enzyme activity is defined as the activity of enzyme which forms 1 μmol of uric acid in one minute at 37° C. and at a pH of 7.3.
Xanthine oxidase activity is determined in the same manner as in Method I except that 0.25 U/ml xanthine oxidase solution is used and various enzyme inhibitors are added.

xanthine oxidase [6] = test system: xanthine oxidase
Experimental: The coloring solution is prepared by adding 445 U/100 ml peroxidase to 0.1 M tris-hydrochloride buffer (pH 7.3) containing 10 mmol/l 4-aminoantipyrine and 10 mmol/l phenol.
In this experiment, 40 ml of medium (pH 7.2) comprising hypoxanthine having concentrations indicated in Table 4, 0.5 g/dl yeast extract, 0.5 g/dl corn steep liquor, 0.1 g/dl peptone, 0.05 g/dl KH2 PO4, 0.1 g/dl K2 HPO4 and 0.05 g/dl MgSO4.7H2 O is poured into Sakaguchi flask and is sterilized at 120° C. for 15 minutes.
One loopful of the seed culture of Enterobacter cloacae KY 3066, FERM P 4077, NRRL B-11155 in a slant is inoculated into the medium and culturing is carried out with shaking at 30° C. for 48 hours.
After completion of the culturing, the culture liquor is subjected to centrifugation at 10,000 r.p.m for 15 minutes (hereinafter centrifugation is carried out under this condition) to obtain microbial cells. The thus obtained cells are suspended in 20 ml of 50 mM tris-hydrochloride buffer (pH 8.0) and then disrupted for ten minutes in an ultrasonic disintegration (Ultrasonic Generator KMS-250 type, made by Kubota Seisaku-sho). The resulting disrupted cell suspension is centrifuged to obtain a supernatant. Xanthine oxidase activity of the supernatant is determined according to the Determination Method II and the results are shown in Table 4 below.

xanthine oxidase [7] = type: biochemical, Enterobacter cloacae
Experimental: As a coloring solution, 0.1 M tris-hydrochloride buffer (pH 7.3) containing 10 mmol/l 4-aminoantipyrine, 10 mmol/l phenol and 490 U/100 ml peroxidase is prepared. […] The absorbancy of the reaction solution is measured at 500 nm.

## O=C1C(Cl)=CC(=Nc2ccc(O)cc2)C=C1Cl [DCPIP, 2,6-sodium salt of dichlorphenol indophenol]
[1]
  Relative activity: 35
Xanthine oxidase [2]; acceptor 0.04 mM, 600 nm
  Relative activity: 9.2%

## Nc1nc2c(ncn2[C@@H]2O[C@H](CO)[C@@H](O)[C@H]2O)c(=O)[nH]1 [Guanosine]
Xanthine oxidase [3]
  Relative activity: 0%

## Nc1nc2c(ncn2[C@@H]2O[C@H](COP(=O)(O)O)[C@@H](O)[C@H]2O)c(=O)[nH]1 [Disodium 2,5'-guaninate]
Xanthine oxidase [4]; amount of addition 0.81 g/dl
  Xanthine oxidase: 0.30 U/ml

## NC(=O)c1ccc[n+]([C@@H]2O[C@H](COP(=O)([O-])OP(=O)(O)OC[C@H]3O[C@@H](n4cnc5c(N)ncnc54)[C@H](OP(=O)(O)O)[C@@H]3O)[C@@H](O)[C@H]2O)c1 [NADP]
Xanthine oxidase [2]; acceptor 0.1 mM, 340 nm
  Relative activity: 0%

## O.O.[Cl][Cu][Cl] [CuCl2.2H2 O]
Xanthine oxidase [5]
  inhibition of xanthine oxidase (in words): inhibitors of xanthine oxidase
Xanthine oxidase [5]; inhibitor 1 × 10^-4 M
  Inhibition rate: 96.3%
Xanthine oxidase [5]; inhibitor 1 × 10^-5 M
  Inhibition rate: 79.6%
Xanthine oxidase [5]; inhibitor 1 × 10^-6 M
  Inhibition rate: 12.9%
Xanthine oxidase [5]; inhibitor 1 × 10^-7 M
  Inhibition rate: 0%

## c1ncc2[nH]cnc2n1 [Purine]
Xanthine oxidase [3]
  Relative activity: 23.3%
  activity of xanthine oxidase on substrate (in words): strong activity

## Cn1cnc2c1c(=O)[nH]c(=O)n2C [Theobromine]
Xanthine oxidase [3]
  Relative activity: 0%

## O=C1O[C@H]([C@@H](O)CO)C(O)=C1O [L-ascorbic acid]
Xanthine oxidase [5]
  inhibition of xanthine oxidase (in words): inhibitors of xanthine oxidase
Xanthine oxidase [5]; inhibitor 1 × 10^-3 M
  Inhibition rate: 88.9%
Xanthine oxidase [5]; inhibitor 1 × 10^-4 M
  Inhibition rate: 82.7%
Xanthine oxidase [5]; inhibitor 1 × 10^-5 M
  Inhibition rate: 61.7%
Xanthine oxidase [5]; inhibitor 1 × 10^-6 M
  Inhibition rate: 0%

## O=O [Oxygen]
[1]
  Relative activity: 83
Xanthine oxidase [2]
  acceptor of the present enzyme (in words): best acceptor
Xanthine oxidase [2]; dissolved oxygen, 295 nm
  Relative activity: 100%

## Sc1ncnc2nc[nH]c12 [6-mercaptopurine]
Xanthine oxidase [3]
  Relative activity: 4.4%

## Nc1nc2nc[nH]c2c(=O)[nH]1 [Guanine]
Xanthine oxidase [3]
  Relative activity: 53.3%
  activity of xanthine oxidase on substrate (in words): strong activity
Xanthine oxidase [4]; amount of addition 0.3 g/dl
  Xanthine oxidase: 0.14 U/ml

## NC(=O)C1=CN([C@@H]2O[C@H](COP(=O)(O)OP(=O)(O)OC[C@H]3O[C@@H](n4cnc5c(N)ncnc54)[C@H](O)[C@@H]3O)[C@@H](O)[C@H]2O)C=CC1 [NADH]
Xanthine oxidase [3]
  Relative activity: 0%

## O=c1[nH]cnc2nc[nH]c12 [Hypoxanthine]
Xanthine oxidase [3]
  Relative activity: 92.3%
  activity of xanthine oxidase on substrate (in words): strong activity
Xanthine oxidase [6]; hypoxanthine 0.1 g/dl
  Xanthine oxidase activity: 20.0 U/dl
Xanthine oxidase [6]; hypoxanthine 0.2 g/dl
  Xanthine oxidase activity: 31.2 U/dl
Xanthine oxidase [6]; hypoxanthine 0.3 g/dl
  Xanthine oxidase activity: 47.3 U/dl
Xanthine oxidase [6]; hypoxanthine 0.5 g/dl
  Xanthine oxidase activity: 48.4 U/dl
Xanthine oxidase [6]; hypoxanthine 1.0 g/dl
  Xanthine oxidase activity: 55.2 U/dl
Xanthine oxidase [6]; hypoxanthine 3.0 g/dl
  Xanthine oxidase activity: 49.0 U/dl
Xanthine oxidase [7]
  [B]/[A] (formed hydrogen peroxide / substrate): 1.80
Xanthine oxidase [7]; pH 7.3
  Amount of formed hydrogen peroxide [B]: 0.27 µmol

## Cytochrome C: electron acceptor
Xanthine oxidase [2]; acceptor 0.1 mM, 550 nm
  Relative activity: 0%
